Data from article PMC4026539, “Improved Photodynamic Efficacy of Zn(II) Phthalocyanines via Glycerol Substitution” (PLoS ONE, 2014).
pIC50: −log10 of the molar value. Blank lines part the entries; values can stand above or below the compound they belong to.

How the values were obtained:
[1] = UV-visible absorption spectra in different solvents; format: physicochemical; set-up: λmax: unit not given beside the values; details: 10 µM
Description: The UV-visible (10 µM) and fluorescence emission spectra (5 µM) of phthalocyanines in different solvents were measured using SpectraMax M4 microplate reader (Molecular Devices, CA). UV-visible spectra were collected for wavelengths ranging from 350–800 nm and molar extinction coefficient (ε) for each compound was determined. Meanwhile, the fluorescence emission spectra of the compounds were recorded at 650–800 nm following excitation at their respective maximal absorption (λmax). The fluorescence quantum yields (φF) were calculated by using the following formula: φF = φFstd (F×Astd)/[…] where, F and Fstd refer to the area under the fluorescence curve of sample and standard, respectively. A and Astd refer to the absorbance of sample and standard compound at their excitation wavelengths respectively. ZnPcS4 with φFstd = 0.07 (DMSO) was used as reference.

[2] = Log P partition coefficient, shake-flask method; format: physicochemical; details: Octanol-1/H2O, room temperature
Description: Phthalocyanines were prepared in presaturated Octanol-1 (Oct) or H2O depending on their solubility (ZnPcS4, phthalocyanines 1 and 2 in H2O; phthalocyanine 3 in Oct) with concentrations ranging from 1–20 µM. […] The glass tube was left to stand for 1–2 h at room temperature. The absorbance of the phthalocyanine was measured before addition of the other solvent and also after incubation. To obtain log P value, calculations were done using the formula: log P = log [COct/CH2O] where, COct and CH2O represent concentrations of phthalocyanine in Oct and H2O, respectively. Partition coefficient (log P) is defined as the ratio of concentrations of a dissolved substance in a two-phase system consisting of two immiscible solvents e.g. n-octanol and water at equilibrium. It reflects the level of hydrophilicity and hydrophobicity of a compound, which determines the permeability of the compound across the lipid bilayers of cell membrane. In this study, the log P values of the phthalocyanines were measured using the shake-flask method.

HSC-2 cells = test: Cellular uptake study by flow cytometry; format: cell-based, human; details: 10 µM
Description: HSC-2 cells were plated overnight in 6-well plates (1×10^5 cells/well) in MEM media. Cells were incubated with 10 µM of phthalocyanine 1, 2, 3 or ZnPcS4 for various time intervals. Following incubation, cells were washed twice with PBS, collected by trypsinization and resuspended in phenol red-free MEM media. The mean fluorescence signal for 10 000 cells were analyzed using FACSCalibur flow cytometer (Becton Dickinson, NJ) with FL4 channel (excitation 635 nm, bandpass filter 661/16 nm) and data collected were translated into relative concentration using the formula F = k * QE * Po * (2.303 *ε * b * c). All assays were performed in triplicates. F = measured fluorescence intensity, k = geometric instrumental factor, QE = quantum efficiency (ratio of photons being emitted to photons being absorbed) and Po = radiant power of the excitation source (wavelength-dependent molar absorptivity coefficient). b and c are as being used in the Beer-Lambert law, where b = path length, and c = concentration of the analyte.

[3] = system: HCT-116 cells human colon carcinoma; test: In vitro phototoxicity assay (MTT); format: cell-based; details: 2 h incubation, MTT after 48 h
Description: (§1) MCF-7 human breast carcinoma and HCT-116 cells human colon carcinoma cell lines were obtained from American Tissue Culture Collection (Virginia, USA), whereas HSC-2 human oral squamous carcinoma cell line was purchased from Health Science Research Resources Bank, (Osaka, Japan). Approximately 3000–4000 cells/well were seeded in 96-well plate and incubated overnight for cell adherence and growth. Cells were then treated with phthalocyanines 1, 2, 3 or ZnPcS4 with concentrations ranging from 0.01 to 100 µM and were incubated for 2 h before irradiated with 4.0 J/cm^2 of light filtered with Roscolux #26 Light Red (>580 nm) (Rosco, NY) membrane filter at a fluence rate of 7.5 mW/cm^2 for 10 min. Illumination was performed in the presence of photosensitizer in the media. The cells were further incubated for 48 h before cell viability was assessed by the MTT assay. For MTT assay, 20 µl of MTT solution (5 mg/ml) were added to each well and incubated for 4 h. The medium was removed and replaced with 100 µl of DMSO to dissolve the formazan crystal formed and the absorbance was read at 570 nm with a microplate reader. The percentage of cell viability was determined relative to untreated control and the half maximal inhibitory concentration (IC50) values were determined. Dark toxicity for each phthalocyanine was also determined in parallel.

[4] = system: HSC-2 human oral squamous carcinoma cell line; test: In vitro phototoxicity assay (MTT); format: cell-based; details: 2 h incubation, MTT after 48 h
Description: as §1

[5] = system: MCF-7 human breast carcinoma; test: In vitro phototoxicity assay (MTT); format: cell-based; details: 2 h incubation, MTT after 48 h
Description: as §1

[6] = system: MCF-7, HCT-116 and HSC-2 cancer cell-lines; test: In vitro phototoxicity assay (MTT), panel of cancer cell lines; format: cell-based, human; details: 4.0 J/cm^2
Description: as §1, with “Cells were then treated with phthalocyanines 1, 2, 3 or ZnPcS4 with concentrations ranging from 0.01 to 100 µM and were incubated for 2 h before irradiated with 4.0 J/cm^2 of light filtered with Roscolux #26 Light Red (>580 nm) (Rosco, NY) membrane filter at a fluence rate of 7.5 mW/cm^2 for 10 min.” left out

CAM vasculature = test: PDT-induced vascular occlusion in CAM model; format: in vivo, Lohmann Brown chicken; details: for Occlusion score: 10 nmol/embryo i.v., mean ± SEM of ten embryos, scale of Table 1
Description: Freshly fertilized eggs from Lohmann Brown chicken variety (Hong Hing Sdn. Bhd, Selangor, Malaysia) were incubated with the narrow apex down in a 90° swinging Octagon 40DX incubator (Brinsea Products Inc., Standford, England) at 37°C and 65% relative humidity. On embryo development day (EDD) three, an eggshell opening of about 4 mm in diameter was bored at the apex and sealed with adhesive tape to avoid contamination and desiccation of the egg contents. The eggs were further incubated in stationary position with the apex upright until ready for use at EDD-9.
For vascular occlusion study, the egg opening was extended to ∼30 mm in diameter on EDD-9. Embryos were intravenously administered with a single bolus of 10 nmol/embryo of phthalocyanine in dosing vehicle (5% CrEL, 5% EtOH in saline) at the CAM main vasculature. One min after injection, a site with blood vessel diameter between 5–100 µm was irradiated with a light dose of 5 J/cm^2 or 10 J/cm^2. Irradiation was performed with light of 600–800 nm wavelength with a fluence rate of 11.5 mW/cm^2 over an irradiation area of 1.13 mm^2. Fluorescence angiograms were performed immediately to assess the PDT-induced vasculature damage. Blood vessels were perfused with 20 µl of 25 mg/ml FITC-dextran followed by injection of Indian ink into the extra-embryonic cavity to decrease the embryo’s interfering fluorescence from deeper located vessels. The vasculature network at the site of irradiation was illuminated by exciting FITC at 465–496 nm wavelengths on the fluorescence microscope. The vasculature network was imaged and the extent of damage induced by PDT was scored using a previously defined arbitrary damage scale from 1 to 5 as listed in Table 1 [26]. Generally, the damage on smaller vessels would have lower score whereas the damage on larger blood vessels would have higher score, depending on the size and degree of damage that was caused. At least 10 embryos were assessed for each treatment group.

[7] = set-up: method as in earlier work; details: in DMSO; reference standard value; cited from earlier work
[8] = set-up: method as in PMID 11883602; details: in alcohol; reference standard; cited from earlier work

- ε ([1]; DMSO): 114 000 M^−1cm^−1
- λmax ([1]; DMSO): 676
- ε ([1]; Ethanol): 27 000 M^−1cm^−1
- λmax ([1]; Ethanol): 666
- ε ([1]; PBS+2% Triton x-100): 20 000 M^−1cm^−1
- λmax ([1]; PBS+2% Triton x-100): 606
- ε ([1]; PBS): 23 000 M^−1cm^−1
- λmax ([1]; PBS): 606
- log P [2]: −1.7±0.4
Compound: tetrasulfonated zinc (II) phthalocyanine [ZnPcS4]
- cellular uptake (in words) (HSC-2 cells): poorly taken up by cells
- pIC50 ([3]; 0 J/cm^2 (dark toxicity)): < 4.00
- pIC50 ([3]; 4.0 J/cm^2 (>580 nm)): < 4.00
- pIC50 ([4]; 0 J/cm^2 (dark toxicity)): < 4.00
- pIC50 ([4]; 4.0 J/cm^2 (>580 nm)): < 4.00
- pIC50 ([5]; 0 J/cm^2 (dark toxicity)): < 4.00
- pIC50 ([5]; 4.0 J/cm^2 (>580 nm)): < 4.00
- phototoxicity IC50, range over MCF-7, HCT-116 and HSC-2 ([6]; tested up to 100 µM): failed to yield determinable IC50 values
- loss of cell viability ([6]; treatment concentrations of up to 100 µM): no significant loss of cell viability
- Occlusion score (CAM vasculature; 5 J/cm^2, 600–800 nm): 0 ± 0.0
- Occlusion score (CAM vasculature; 10 J/cm^2, 600–800 nm): 0 ± 0.2
- vascular occlusion effect (in words) (CAM vasculature; 10 nmol/embryo, 5 J/cm^2): failed to demonstrate vascular occlusion effects
- vascular occlusion effect (in words) (CAM vasculature; similar experimental conditions, light dose not stated at the place (abstract)): no detectable vascular occlusion
- φF (fluorescence quantum yield) [7]: 0.07

Compound: C=Cc1c(C)c2cc3nc(c4c5[nH]c(cc6nc(cc1[nH]2)C(C)=C6CC)c(C)c5C(=O)[C@@H]4C(=O)OC)[C@@H](CCC(=O)O)[C@@H]3C [Pha, pheophorbide a]
- singlet oxygen quantum yield [8]: 0.52
